Consider one substance from patent US20250367230A1, “Method for preparing SAMe microcapsules” (XIAMEN KINGDOMWAY BIOTECH. CO., LTD., priority 2024, published 2025).

In series [1] the test system is mouse gastrointestinal tract. In words: Effect on mouse gastrointestinal tract (indomethacin/ethanol ulcer model, gastric mucosal lesion area). Format: in vivo, mice (C57). The settings on record: mice, 5.0 g/kg·bw gavage once a day for 21 days, then indomethacin 10 mg/kg·bw i.p. and 60% ethanol gavage. The text has this:
Experimental animals: Healthy adult mice (C57, purchased from Pabeile Experimental Animal Breeding Co., Ltd.), with body weight of 18 to 22 g.
Experimental materials: The test samples were SAMe microcapsules obtained from the formulas in Examples 1 to 5 and Comparative Examples 1 to 9, and SAMe raw material.
Experimental method: The designed dose (5.0 g/kg·bw) was equivalent to 5 times the recommended dosage for humans, and an ulcer model control group was set. Each group was gavaged with the test sample once a day, and the control group was fed with an equal volume of distilled water. After 21 consecutive days of feeding, the animals were fasted for 1 day. 0.5 h after the last gavage, the mice of each group were intraperitoneally injected with indomethacin suspension (purchased from Liaoyang Helin Pharmaceutical Co., Ltd.) (10 mg/kg·bw), and 1 h later, the mice were gavaged with 60% ethanol ([…]). After 1 h, the mice were killed by cervical dislocation, laparotomy and ligation of pylorus were carried out, and 1 mL of 1% formalin was orally gavaged. The cardia was immediately ligated and the entire stomach was cut off. After flushing the stomach contents, the stomach was spread on a glass plate. Under a shadowless magnifying lamp, the area of gastric mucosal lesions was measured and statistically analyzed.

Series [2] is described as follows: Determination of pH value of SAMe microcapsules. It is filed as physicochemical. The note with it: 1 g of sample added to 100 g of water. The protocol: 1 g of each of the above samples was taken and added to 100 g of water, and the pH value was measured.

On to “S-Adenosyl-L-methionine Disulfate Tosylate [SAMe raw material]”, for which the “Lesion area (gastric mucosal lesions)” value in series [1] is listed as 11.57 ± 4.35 mm^2. Also, the pH value in series [2] came out at 1.3.
